According to US20150352108A1, “AMINO-PYRIMIDINE COMPOUNDS AS INHIBITORS OF TBK1 AND/OR IKK EPSILON” (Alzheimer's Institute of America, priority 2009, published 2015):

Key:
[1] = target: T1, IKKε (Homo sapiens, UniProt Q14164); assay: In-vitro IKKε kinase assay ([γ33]ATP filter-plate); assay type: biochemical; conditions: text bins; read-out: IC50 for inhibition of the kinase activity of IKKε
T1 construct: His-tag; made in house; host or cells: Sf9 insect cells
T1 sequence (Q14164 1-716): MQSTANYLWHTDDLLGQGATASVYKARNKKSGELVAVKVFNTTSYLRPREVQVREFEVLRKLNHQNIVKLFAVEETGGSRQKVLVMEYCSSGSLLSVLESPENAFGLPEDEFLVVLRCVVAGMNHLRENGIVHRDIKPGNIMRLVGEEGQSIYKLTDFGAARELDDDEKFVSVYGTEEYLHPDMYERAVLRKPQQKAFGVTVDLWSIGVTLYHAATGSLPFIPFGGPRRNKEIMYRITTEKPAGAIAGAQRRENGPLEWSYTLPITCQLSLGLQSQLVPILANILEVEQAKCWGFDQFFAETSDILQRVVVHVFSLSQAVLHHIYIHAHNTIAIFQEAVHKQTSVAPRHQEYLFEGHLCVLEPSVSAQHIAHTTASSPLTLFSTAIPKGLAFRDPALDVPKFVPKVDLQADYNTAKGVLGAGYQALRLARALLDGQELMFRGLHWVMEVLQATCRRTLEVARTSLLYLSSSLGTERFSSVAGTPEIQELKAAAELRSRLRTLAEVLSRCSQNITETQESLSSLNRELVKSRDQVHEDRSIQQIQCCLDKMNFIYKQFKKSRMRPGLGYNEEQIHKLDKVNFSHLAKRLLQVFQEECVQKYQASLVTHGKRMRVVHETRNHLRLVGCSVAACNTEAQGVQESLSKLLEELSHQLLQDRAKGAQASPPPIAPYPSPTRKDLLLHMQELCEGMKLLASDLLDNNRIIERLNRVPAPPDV
Summary of the method: (§1)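 His-tagged Sf9-expressed kinases at 0.1 or 0.02 μg/ml (TBK1) and 0.1 or 0.015 μg/ml (IKKε) for normal and sensitized formats, with myelin basic protein or casein substrate. ATP was at 2×Km (60 μM TBK1, 32 μM IKKε) plus 0.3 μCi [γ33]ATP. Reactions ran 30-45 min, were captured on P-81 filters, and counts were normalized to DMSO.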

[2] = target: T2, TBK1 (Homo sapiens, UniProt Q9UHD2); assay: In-vitro TBK1 kinase assay ([γ33]ATP filter-plate); assay type: biochemical; conditions: text bins; read-out: IC50 for inhibition of the kinase activity of TBK1
T2 construct: His-tag; made in house; host or cells: Sf9 insect cells
T2 sequence (Q9UHD2 1-729): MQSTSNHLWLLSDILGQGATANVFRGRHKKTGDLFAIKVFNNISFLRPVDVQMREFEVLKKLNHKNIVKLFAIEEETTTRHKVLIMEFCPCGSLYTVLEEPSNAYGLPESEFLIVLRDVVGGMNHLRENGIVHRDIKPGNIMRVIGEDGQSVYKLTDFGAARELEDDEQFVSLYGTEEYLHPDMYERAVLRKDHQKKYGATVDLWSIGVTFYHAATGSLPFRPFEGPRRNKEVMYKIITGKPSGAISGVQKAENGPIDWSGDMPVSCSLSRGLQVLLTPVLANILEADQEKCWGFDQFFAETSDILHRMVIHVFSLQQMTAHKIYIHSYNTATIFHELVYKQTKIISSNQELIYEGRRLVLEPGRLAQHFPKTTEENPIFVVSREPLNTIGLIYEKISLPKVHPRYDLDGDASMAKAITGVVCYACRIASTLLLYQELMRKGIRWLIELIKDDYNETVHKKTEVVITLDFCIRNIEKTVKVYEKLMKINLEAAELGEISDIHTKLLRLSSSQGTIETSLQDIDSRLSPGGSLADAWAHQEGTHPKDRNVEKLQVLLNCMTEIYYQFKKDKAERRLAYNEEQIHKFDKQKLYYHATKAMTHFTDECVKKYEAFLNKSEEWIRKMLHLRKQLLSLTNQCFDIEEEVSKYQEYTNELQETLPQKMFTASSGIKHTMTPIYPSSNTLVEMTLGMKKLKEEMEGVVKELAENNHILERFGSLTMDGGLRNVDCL
Summary of the method: as §1

| Compound | IC50 [1] [nM] | IC50 [2] [nM] |
| --- | --- | --- |
| COc1cc(-c2ccnc(Nc3ccc(CN4CCN(CCO)CC4)cc3)n2)cc(C#N)c1OC1CCOCC1 [compound 443] | 5 to 50 | 10 to 100 |
| CC(C)C(=O)Nc1ccc(-c2ccnc(Nc3ccc(N4CCN(CCO)CC4)cc3)n2)cc1C#N [compound 427, N-{2-cyano-4-[2-({4-[4-(2-hydroxyethyl)piperazin-1-yl]phenyl}amino)pyrimidin-4-yl]phenyl}-2-methylpropanamide] | 5 to 50 | < 10 |
| N#Cc1cc(-c2ccnc(Nc3ccc(N4CCOCC4)cc3)n2)ccc1OC1CCN(C=O)C1 (stereo not shown) [Example 187, 2-[(1-formylpyrrolidin-3-yl)oxy]-5-(2-{[4-(morpholin-4-yl)phenyl]amino}pyrimidin-4-yl)benzonitrile] | 5 to 50 | < 10 |
| CC(C)C(=O)Nc1ccc(-c2ccnc(Nc3cccc(CCO)c3)n2)cc1C#N [compound 450, N-[2-cyano-4-(2-{[3-(2-hydroxyethyl)phenyl]amino}pyrimidin-4-yl)phenyl]-2-methylpropanamide] | 5 to 50 | < 10 |
| N#Cc1cc(-c2ccnc(Nc3ccc4ncsc4c3)n2)ccc1OC1CCOCC1 [Example 16, 5-[2-(1,3-benzothiazol-6-ylamino)pyrimidin-4-yl]-2-(tetrahydro-2H-pyran-4-yloxy)benzonitrile] | < 5 | < 10 |
| Cc1ccc(Nc2nccc(-c3ccc(NC(=O)C(C)C)c(C#N)c3)n2)cc1OCCCN1CCOCC1 [compound 410] | 5 to 50 | 10 to 100 |
| COc1cc(NC(=O)N2CCCC(O)C2)cc(Nc2nccc(-c3ccc(OC)c(C#N)c3)n2)c1 (stereo not shown) [compound 353, N-(3-{[4-(3-Cyano-4-methoxyphenyl)pyrimidin-2-yl]amino}-5-methoxyphenyl)-3-hydroxypiperidine-1-carboxamide] | 5 to 50 | 10 to 100 |
| COc1cc(Nc2nccc(-c3cccc(C#N)c3)n2)cc(OC)c1 [compound 347, 3-{2-[(3,5-Dimethoxyphenyl)amino]pyrimidin-4-yl}benzonitrile] | 50 to 500 | 100 to 500 |
| COc1ccc(Nc2nccc(-c3cc(Cl)cc(C#N)c3)n2)cc1OC [Example 248, 3-Chloro-5-{2-[(3,4-dimethoxyphenyl)amino]pyrimidin-4-yl}benzonitrile] | 5 to 50 | 10 to 100 |
| COC(=O)c1ccc(Nc2nccc(-c3ccc(OC4CCN(C(=O)[C@H](C)O)CC4)c(C#N)c3)n2)cc1OC [compound 324, methyl 4-({4-[3-cyano-4-({1-[(2S)-2-hydroxypropanoyl]piperidin-4-yl}oxy)phenyl]pyrimidin-2-yl}amino)-2-methoxybenzoate] | 5 to 50 | 10 to 100 |
| COc1cc(Nc2nccc(-c3ccc(OC4CCOCC4)c(C#N)c3)n2)ccc1C(=O)NCc1cccnc1 [Example 275, 4-({4-[3-cyano-4-(tetrahydro-2H-pyran-4-yloxy)phenyl]pyrimidin-2-yl}amino)-2-methoxy-N-(pyridin-3-ylmethyl)benzamide] | < 5 | < 10 |
| COc1ccc(-c2ccnc(Nc3ccc(OC4CCN(C)CC4)cc3)n2)cc1C#N [Example 288, 2-Methoxy-5-[2-({4-[(1-methylpiperidin-4-yl)oxy]phenyl}amino)pyrimidin-4-yl]benzonitrile] | 5 to 50 | < 10 |
| COc1ccc(-c2ccnc(Nc3ccc(N4CCOCC4)cc3)n2)cc1C#N [Example 266, 2-Methoxy-5-(2-{[4-(morpholin-4-yl)phenyl]amino}pyrimidin-4-yl)benzonitrile] | 5 to 50 | < 10 |
| N#Cc1cc(-c2ccnc(Nc3ccc(N4CCOCC4)cc3)n2)ccc1NS(=O)(=O)CC(F)(F)F [Example 243, N-[2-cyano-4-(2-{[4-(morpholin-4-yl)phenyl]amino}pyrimidin-4-yl)phenyl]-2,2,2-trifluoroethane-sulfonamide] | 5 to 50 | 10 to 100 |
| COCCNC(=O)c1ccc(Nc2nccc(-c3ccc(NC(=O)C4CC4)c(C#N)c3)n2)cc1OC [compound 558, 4-[(4-{3-Cyano-4-[(cyclopropylcarbonyl)amino]phenyl}pyrimidin-2-yl)amino]-2-methoxy-N-(2-methoxyethyl) benzamide] | < 5 | < 10 |
| COc1ccc(-c2ccnc(Nc3ccc(OC)c(OCCN4CCOCC4)c3)n2)cc1C#N [compound 368, 2-Methoxy-5-[2-({4-methoxy-3-[2-(morpholin-4-yl)ethoxy]phenyl}amino)pyrimidin-4-yl]benzonitrile] | 5 to 50 | 10 to 100 |
| N#Cc1cc(-c2ccnc(Nc3ccc(N4CCOCC4)c(F)c3)n2)ccc1OC1CCOCC1 [Example 24, 5-(2-{[3-fluoro-4-(morpholin-4-yl)phenyl]amino}pyrimidin-4-yl)-2-(tetrahydro-2H-pyran-4-yloxy)benzonitrile] | < 5 | < 10 |
| N#Cc1cc(-c2ccnc(Nc3ccc(F)c(OCC(O)CO)c3)n2)ccc1OC1CCOCC1 (stereo not shown) [compound 608, 5-(2-{[3-(2,3-Dihydroxypropoxy)-4-fluorophenyl]amino}pyrimidin-4-yl)-2-(tetrahydro-2H-pyran-4-yloxy)benzonitrile] | < 5 | < 10 |
| CC(=O)N1CCN(C(=O)Nc2ccc(Nc3nccc(-c4ccc(OC5CCOCC5)c(C#N)c4)n3)cc2)CC1 [Example 19, 4-acetyl-N-[4-({4-[3-cyano-4-(tetrahydro-2H-pyran-4-yloxy)phenyl]pyrimidin-2-yl}amino)phenyl] piperazine-1-carboxamide] | 5 to 50 | < 10 |
| CCN1CCN(c2ccc(-c3ccnc(Nc4ccc(N5CCOCC5)cc4)n3)cc2C#N)CC1 [Example 123, 2-(4-Ethylpiperazin-1-yl)-5-(2-{[4-(morpholin-4-yl)phenyl]amino}pyrimidin-4-yl)benzonitrile] | 5 to 50 | 10 to 100 |
| COCCNCc1ccc(Nc2nccc(-c3ccc(NC(=O)C4CC4)c(C#N)c3)n2)cc1 [compound 557] | 5 to 50 | 10 to 100 |
| CS(=O)(=O)N1CCN(c2ccc(Nc3nccc(-c4ccc(OC5CCOCC5)c(C#N)c4)n3)cc2)CC1 [Example 100, 5-[2-({4-[4-(methylsulfonyl)piperazin-1-yl]phenyl}amino)pyrimidin-4-yl]-2-(tetrahydro-2H-pyran-4-yloxy)benzonitrile] | < 5 | < 10 |
| CC(=O)N1CCC(Oc2ccc(-c3ccnc(Nc4ccc(N5CCOCC5)cc4)n3)cc2C#N)CC1 [Example 86, 2-[(1-Acetylpiperidin-4-yl)oxy]-5-(2-{[4-(morpholin-4-yl)phenyl]amino}pyrimidin-4-yl)benzonitrile] | 5 to 50 | 10 to 100 |
| COc1cc(C#N)cc(-c2ccnc(Nc3ccc(OC)c(OC)c3)n2)c1 [Example 172, 3-{2-[(3,4-Dimethoxyphenyl)amino]pyrimidin-4-yl}-5-methoxybenzonitrile] | 5 to 50 | 10 to 100 |
| COc1cc(NC(=O)NC[C@@H](C)O)cc(Nc2nccc(-c3ccc(OC)c(C#N)c3)n2)c1 [compound 343, 1-(3-{[4-(3-Cyano-4-methoxyphenyl)pyrimidin-2-yl]amino}-5-methoxyphenyl)-3-[(2R)-2-hydroxypropyl]urea] | 5 to 50 | < 10 |
| COc1ccc(-c2ccnc(Nc3cccc(Cl)c3)n2)cc1C#N [Example 260, 5-{2-[(3-Chlorophenyl)amino]pyrimidin-4-yl}-2-methoxybenzonitrile] | 50 to 500 | 10 to 100 |
